Test results published in US7238376B2, “Black tea extract for prevention of disease” (Rutgers, The State University, priority 2000, dated 2007).

Legend:
[1] = test system: Cox-2 gene expression; test: Cox-2 gene expression in Caco-2 cells (Northern blot / RT-PCR); format: cell-based, human; conditions: TF-2 effects seen at 50 to 100 μM
Description: All three polyphenols were tested, TF-1, TF-2 and TF-3.
The effect of TF-2 on the time course of Cox-2 gene expression in Caco-2 cells was then examined. Cox-2 mRNA was detectable in quiescent Caco-2 cells, consistent with the finding that colon cancer cells have elevated Cox-2 gene expression. Fresh serum induced a 2- to 4-fold increase in Cox-2 expression in Caco-2 cells as early as 4 hours after stimulation; this was expected because of the known stimulatory effects of serum factors.
Confluent cultures were serum-deprived for 48 hours. Cells were then treated with 10% fresh fetal bovine serum in the presence or absence of the black tea extracts (10, 20, 40, 50, 80 or 100 μM) to initiate the progression of the cell cycle. Cells were harvested at either 4 or 12 hours for total RNA isolation. Total RNA samples were resolved by electrophoresis on 1% agarose-formaldehyde gel (6 μg per lane) and transferred onto a nylon membrane. Northern blot analysis was performed.
Confluent cultures were first serum-deprived for 48 hours and then stimulated with 10% fresh fetal bovine serum in the absence or presence of black tea extracts. Cells were harvested and total RNA was prepared using a kit (QIAGEN, Chatsworth, Calif.). Total RNA (1 μg) from each cell sample was reverse transcribed into cDNA by incubating with RNase H reverse transcriptase (Gibco BRL, Grand Island, N.Y.) using oligo(dT)12-18 as primer. For PCR amplification, gene specific primers were designed. The sequences of the sense and antisense primers for various genes were: […]
PCR was performed under conditions that allowed the amounts of PCR products to be proportional to the amounts of RNA input. The housekeeping gene, glyceraldehyde-3-phosphate dehydrogenase (GAPDH) was used as an internal control. The PCR products were analyzed by electrophoresis on 1% agarose gel containing 0.5 μg/ml ethidium bromide.

[2] = test system: EGF and PDGF receptors; conditions: compared with EGCG; Liang et al. 1999; cited from earlier work
[3] = test system: human A431 carcinoma cells; conditions: compared with EGCG; Liang et al. 1999; cited from earlier work
[4] = test system: human lymphoid leukemia cells and human stomach tumor cells; conditions: Hibasami et al. 1998; cited from earlier work
[5] = test system: W138VA cells; test: proliferation assay, crystal violet staining; format: cell-based, human; conditions: 0, 1, 5, 10, 25 and 50 μM; 4 days
Description: The effects of black tea polyphenols on proliferation of W138 and W138VA cells was examined. W138 diploid fibroblasts have a finite life span whereas the virally transformed W138VA cells are cancerous in nude mice. Both cell types were grown in 24 well plates in the presence of increasing doses of the theaflavin polyphenols, TF-1, TF-2 and TF-3 (0, 1, 5, 10, 25 and 50 μM). Viable cells were stained with crystal violet 4 days after plating. A decrease in staining intensity relative to the untreated control cells were indicative of growth inhibition by the polyphenol compound. Of the three theaflavin polyphenols tested, only TF-2 had significant effects on cells growth. […] The IC50 value for TF-2 and growth inhibition of W138VA cells was estimated to be 3 μM.
Normal human W138 (cell strain AG06814E, PDL=16) and the SV40 virally transformed W138 cells (cell strain AG07217) were obtained from Coriell Institute for Medical Research (Camden, N.J.). Human colon cancer cells, Caco-2 (ATCC #HTB-37) and the matched normal colon cells CCD-33Co (ATCC #CRL-1539) were obtained from the American Type Culture Collection (Rockville, Md.). Cells were cultured in Dulbecco's medium containing 10% fetal bovine serum at 37° C., 5% CO2. […] Cell growth was measured by counting viable cells using the Trypan Blue exclusion method. […] Proliferation was monitored by crystal-violet staining. […]

[6] = test system: Caco-2 colorectal cancer cells, Hs578T breast cancer cells, and SV40-transformed W138 cells; conditions: Chen et al. 1998; cited from earlier work
[7] = test system: normal counterparts; conditions: Chen et al. 1998; cited from earlier work

Compound	Cox-2 gene expression in Caco-2 cells [1]	reducing autophosphorylation of EGF and PDGF receptors [2]	inhibiting the growth of human A431 carcinoma cells [3]	apoptosis in human lymphoid leukemia cells and human stomach tumor cells [4]	differential growth inhibition of W138 versus W138VA cells [5]	growth of human tumor cells [6]	growth of normal counterparts [7]
O=C(O[C@@H]1Cc2c(O)cc(O)cc2O[C@@H]1c1cc(O)c(=O)c2c(O)c(O)cc([C@H]3Oc4cc(O)cc(O)c4C[C@H]3OC(=O)c3cc(O)c(O)c(O)c3)c2c1)c1cc(O)c(O)c(O)c1 [TF-3, theaflavin-3,3′-digallate]	failed to affect Cox-2 gene expression	as potent as EGCG	as potent as EGCG	can induce apoptosis	did not exhibit this differential growth inhibition		
(−)epigallocatechin gallate [EGCG]	suppressed Cox-2 gene expression it was not as potent as TF-2					inhibits growth	little or no inhibitory effect
O=c1c(O)cc([C@H]2Oc3cc(O)cc(O)c3C[C@H]2O)cc2c([C@H]3Oc4cc(O)cc(O)c4C[C@H]3O)cc(O)c(O)c12 [TF-1, theaflavin]	failed to affect Cox-2 gene expression			can induce apoptosis	did not exhibit this differential growth inhibition		
